5 molecules from ChEMBL document CHEMBL5625257, “Design, synthesis, and evaluation of dual EGFR/AURKB inhibitors as anticancer agents for non-small cell lung cancer” (Bioorg Med Chem Lett, 2024) can be followed below.

SMILES strings stand for the structures.

For assay [1], the target named is Epidermal growth factor receptor (Homo sapiens, UniProt P00533).
Description: Binding affinity to wild type human EGFR partial length (R669 to V1011 residues) expressed in bacterial expression system assessed as dissociation constant by DiscoverX kinomescan assay
For assay [2], the target named is T1, Epidermal growth factor receptor (Homo sapiens, UniProt P00533, L858R).
Description: Binding affinity to human partial length EGFR (R669 to V1011 residues) L858R mutant expressed in bacterial expression system assessed as dissociation constant by DiscoverX kinomescan assay
The next assay has as its system A549. The assay is described as follows: Anticancer activity against human A549 cells harboring KRAS mutant assessed as inhibition of cell growth.
Assay [3] addresses T1, Epidermal growth factor receptor. The source holds these as a separate data set.
Description: Inhibition of EGFR L858R mutant phosphorylation (unknown origin) preincubated for 60 mins in the presence of ATP
The target is the same in assay [4]. This is another data set of the same source.
Description: Inhibition of EGFR L858R mutant phosphorylation (unknown origin) in the presence of ATP
In assay [5] the target is T2, Aurora kinase B/Inner centromere protein (Homo sapiens, UniProt Q96GD4).
Description: Inhibition of AURKB/INCENP (unknown origin) preincubated for 60 mins in the presence of ATP at Km concentration
The target of assay [6] is T2, Aurora kinase B/Inner centromere protein. This is another data set of the same source.
Description: Inhibition of AURKB/INCENP (unknown origin) in the presence of ATP at Km concentration
The target in assay [7] is T3, Aurora kinase B (Homo sapiens, UniProt Q96GD4). The assay is described as follows: Inhibition of AURKB (unknown origin) by nanoBRET assay.
The target in assay [8] is T3, Aurora kinase B.
Description: Binding affinity to human partial length AURKB (D25 to A303 residues) expressed in mammalian system assessed as dissociation constant by DiscoverX kinomescan assay
Another assay deals with NCI-H1975. Kind of assay: cells. As to conditions: Homo sapiens.

T1 sequence (P00533 25-1210 L858R limits assumed): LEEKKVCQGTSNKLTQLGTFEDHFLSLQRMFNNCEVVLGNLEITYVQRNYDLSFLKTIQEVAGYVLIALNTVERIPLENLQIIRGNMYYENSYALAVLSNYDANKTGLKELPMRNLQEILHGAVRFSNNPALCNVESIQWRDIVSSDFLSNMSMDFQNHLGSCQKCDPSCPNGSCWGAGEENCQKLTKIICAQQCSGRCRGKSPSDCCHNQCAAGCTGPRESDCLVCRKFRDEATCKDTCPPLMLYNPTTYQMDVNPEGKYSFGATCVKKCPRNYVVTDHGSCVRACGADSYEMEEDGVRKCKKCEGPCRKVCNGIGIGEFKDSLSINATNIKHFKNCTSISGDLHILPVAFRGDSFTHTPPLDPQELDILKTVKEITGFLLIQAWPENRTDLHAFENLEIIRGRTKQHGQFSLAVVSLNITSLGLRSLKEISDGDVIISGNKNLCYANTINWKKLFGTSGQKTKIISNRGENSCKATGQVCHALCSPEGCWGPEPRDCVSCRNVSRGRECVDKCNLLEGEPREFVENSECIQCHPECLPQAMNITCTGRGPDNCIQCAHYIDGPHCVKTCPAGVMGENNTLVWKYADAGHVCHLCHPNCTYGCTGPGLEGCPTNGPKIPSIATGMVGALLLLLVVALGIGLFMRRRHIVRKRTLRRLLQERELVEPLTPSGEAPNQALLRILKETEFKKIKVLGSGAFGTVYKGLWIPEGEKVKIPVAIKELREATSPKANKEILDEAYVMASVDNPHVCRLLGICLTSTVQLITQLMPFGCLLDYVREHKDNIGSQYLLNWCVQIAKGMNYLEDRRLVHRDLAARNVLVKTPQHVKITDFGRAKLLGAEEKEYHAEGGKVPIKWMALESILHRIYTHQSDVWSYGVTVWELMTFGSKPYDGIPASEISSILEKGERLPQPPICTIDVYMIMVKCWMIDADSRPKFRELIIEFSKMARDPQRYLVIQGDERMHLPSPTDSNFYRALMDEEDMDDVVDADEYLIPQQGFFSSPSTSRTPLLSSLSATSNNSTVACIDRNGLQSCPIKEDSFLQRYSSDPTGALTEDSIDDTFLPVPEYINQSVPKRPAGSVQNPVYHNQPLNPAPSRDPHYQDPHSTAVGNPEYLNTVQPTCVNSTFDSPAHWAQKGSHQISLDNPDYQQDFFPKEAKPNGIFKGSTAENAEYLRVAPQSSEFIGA
T2 sequence (Q96GD4 whole entry): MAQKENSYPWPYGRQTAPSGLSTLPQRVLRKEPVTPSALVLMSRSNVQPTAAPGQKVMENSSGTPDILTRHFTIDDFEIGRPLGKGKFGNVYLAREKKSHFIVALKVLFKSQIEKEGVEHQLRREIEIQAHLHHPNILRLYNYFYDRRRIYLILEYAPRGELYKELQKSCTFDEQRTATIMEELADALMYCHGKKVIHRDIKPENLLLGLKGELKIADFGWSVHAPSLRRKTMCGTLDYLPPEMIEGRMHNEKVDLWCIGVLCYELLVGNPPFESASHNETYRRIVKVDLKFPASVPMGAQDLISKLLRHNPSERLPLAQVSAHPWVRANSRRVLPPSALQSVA
T2 sequence (Q9NQS7 whole entry, further chain): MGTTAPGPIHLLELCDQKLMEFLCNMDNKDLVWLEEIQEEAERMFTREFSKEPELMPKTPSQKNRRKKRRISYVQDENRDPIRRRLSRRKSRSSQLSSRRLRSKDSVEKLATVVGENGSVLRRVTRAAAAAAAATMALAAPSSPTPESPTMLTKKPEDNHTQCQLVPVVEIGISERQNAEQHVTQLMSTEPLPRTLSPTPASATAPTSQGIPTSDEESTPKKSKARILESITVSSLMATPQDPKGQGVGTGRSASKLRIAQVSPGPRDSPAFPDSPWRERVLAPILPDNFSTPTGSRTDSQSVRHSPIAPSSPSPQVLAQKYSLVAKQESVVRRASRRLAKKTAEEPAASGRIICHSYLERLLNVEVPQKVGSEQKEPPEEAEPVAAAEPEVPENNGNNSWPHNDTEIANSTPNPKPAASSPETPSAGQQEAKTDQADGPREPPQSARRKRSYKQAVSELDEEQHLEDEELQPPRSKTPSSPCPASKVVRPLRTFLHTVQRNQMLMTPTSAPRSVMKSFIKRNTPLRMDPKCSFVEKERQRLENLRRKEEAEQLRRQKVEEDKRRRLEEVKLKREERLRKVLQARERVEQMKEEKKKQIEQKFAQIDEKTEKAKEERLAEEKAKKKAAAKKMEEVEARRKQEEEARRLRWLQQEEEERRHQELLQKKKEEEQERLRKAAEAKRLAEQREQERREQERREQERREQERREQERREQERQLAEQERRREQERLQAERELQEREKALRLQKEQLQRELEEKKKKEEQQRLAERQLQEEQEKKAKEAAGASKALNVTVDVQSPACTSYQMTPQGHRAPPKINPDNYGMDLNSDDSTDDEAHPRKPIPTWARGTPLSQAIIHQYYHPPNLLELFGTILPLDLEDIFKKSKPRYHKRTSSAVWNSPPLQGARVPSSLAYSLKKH
T3 sequence (Q96GD4 whole entry): as the sequence (Q96GD4 whole entry) above
Epidermal growth factor receptor (Homo sapiens, UniProt P00533), sequence (P00533 whole entry): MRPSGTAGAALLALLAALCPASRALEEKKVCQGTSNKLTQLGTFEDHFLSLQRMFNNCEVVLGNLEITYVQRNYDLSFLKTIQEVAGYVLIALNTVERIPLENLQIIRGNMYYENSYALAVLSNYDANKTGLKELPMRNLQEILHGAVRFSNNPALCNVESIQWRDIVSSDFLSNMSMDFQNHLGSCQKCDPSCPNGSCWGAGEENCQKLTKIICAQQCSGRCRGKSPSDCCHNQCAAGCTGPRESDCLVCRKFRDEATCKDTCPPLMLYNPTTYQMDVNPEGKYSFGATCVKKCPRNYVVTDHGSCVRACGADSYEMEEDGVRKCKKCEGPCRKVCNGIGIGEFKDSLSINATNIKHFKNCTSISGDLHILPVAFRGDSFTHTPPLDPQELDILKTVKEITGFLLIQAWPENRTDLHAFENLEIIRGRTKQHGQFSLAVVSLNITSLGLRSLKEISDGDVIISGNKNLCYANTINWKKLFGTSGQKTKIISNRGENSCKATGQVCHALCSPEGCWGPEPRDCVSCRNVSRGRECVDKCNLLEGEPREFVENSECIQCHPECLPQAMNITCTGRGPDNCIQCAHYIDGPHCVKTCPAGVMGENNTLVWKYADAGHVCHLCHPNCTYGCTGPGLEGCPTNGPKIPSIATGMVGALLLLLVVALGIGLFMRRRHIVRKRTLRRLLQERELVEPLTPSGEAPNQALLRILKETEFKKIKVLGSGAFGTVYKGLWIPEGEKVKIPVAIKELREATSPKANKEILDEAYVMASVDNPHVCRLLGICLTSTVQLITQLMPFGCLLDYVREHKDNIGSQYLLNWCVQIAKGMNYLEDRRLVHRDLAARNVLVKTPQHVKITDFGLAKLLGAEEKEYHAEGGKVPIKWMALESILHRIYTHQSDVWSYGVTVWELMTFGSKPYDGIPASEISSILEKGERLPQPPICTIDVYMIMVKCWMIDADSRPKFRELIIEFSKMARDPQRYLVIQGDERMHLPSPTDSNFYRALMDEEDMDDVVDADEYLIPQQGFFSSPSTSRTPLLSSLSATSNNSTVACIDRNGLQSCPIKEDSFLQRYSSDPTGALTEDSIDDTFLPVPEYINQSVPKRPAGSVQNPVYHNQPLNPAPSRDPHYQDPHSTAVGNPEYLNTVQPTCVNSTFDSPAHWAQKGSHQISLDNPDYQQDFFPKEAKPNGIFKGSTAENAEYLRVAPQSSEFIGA
Description for NCI-H1975: Anticancer activity against TKI resistant human NCI-H1975 cells harboring EGFR L858R/T790M mutant assessed as inhibition of cell growth

On to `COc1cc2c(Nc3ccc(NC(=O)c4ccccc4)cc3)ncnc2cc1OCCCN1CCOCC1`, for which the Kd in assay [1] was found to be 220 nM; in [2], 880 nM.

Turning to `Brc1cccc(Nc2ncnc3[nH]ccc23)c1`, the IC50 with A549 is 20400 nM; in [3], 3 nM; in assay [4], 3 nM; in assay [5], 3800 nM; in assay [6] it was 2770 nM.

On to `O=C(Nc1ccccc1)c1ccc(Nc2ncnc3[nH]ccc23)cc1`, for which the IC50 against Aurora kinase B [7] was 14700 nM; in [5], 50 nM; in assay [6] it was 800 nM.

Consider `Cn1nccc1-c1cc2c(Nc3ccc(OCc4ccccc4)cc3)ncnc2[nH]1`, for which the IC50 is 2920 nM in the assay on A549; 69 nM in assay [3]; 70 nM in assay [4]; 1100 nM in assay [5]; 4000 nM in [6]; over 50000 nM in the assay on NCI-H1975. The Kd in [2] was 210 nM; at Aurora kinase B [8], over 30000 nM.

`COc1cccc2c1C(=O)c1c(O)c3c(c(O)c1C2=O)C[C@@](O)(C(=O)CO)C[C@@H]3O[C@H]1C[C@H](N)[C@H](O)[C@H](C)O1` [DOXORUBICIN]: the IC50 in the assay with A549 worked out at 59 nM.
